Measurements as given in US8962634B2, “4-amino-3-arylamino-6-arylpyrazolo[3,4-d) pyrimidine derivatives, methods for their preparation and their use as antiviral agents” (priority 2006, dated 2015).
Values after ≈ are worked out from the molar mass of the structure shown. Where two headings read alike, the source gives them in different places.

Assays:
GMK cells = test: Tolerance in the cell culture: cytotoxicity in GMK cells (CC50); format: cell-based; conditions: 72 h incubation
Procedure: (§1) 1×10^4 HeLa cells (DSMZ, ACC 57) were seeded per microtestplate cavity in 0.2 ml culture medium RPMI 1640. The microtiter plates were incubated without the test substance according to standard (at 37° C., 5% CO2 and ca. 95% relative humidity) for 48 hours under physiological conditions to produce subconfluent monolayers. Afterwards, dilution stages of the test substances were added to the monolayers and incubated under physiological conditions during a period of 72 h. At the end of the time of incubation, the extinction of all cavities of the microtiterplates were measured at 660 nm by means of a microplate reader (Sunrise, TECAN) after glutaraldehyd fixation and methylen-blue dye and the CC50 was determined by the analysis program “Magellan”. As the pre-incubation of the HeLa cells already leads to the formation of a subconfluent cell lawn, the cytolysis during the subsequent incubation with the test substance is decisive for the analysis. GMK cells were seemed in microtiter plates and preincubated at 5% CO2, 37° C. and with a humidity of 95% in the incubator during 48 h for producing a cell lawn (Schmidtke M et al.: J Virol Meth, 2001, 95(1-2), 133-143). Then, the medium was removed and the substances were deposited in different concentrations (100 μl/well/concentration, dilution factor 2) in the culture medium. 100 μl of the medium was used for each of the control value determinations (six untreated cell controls). 72 h after the substance application and incubation, the cells were dyed with crystal-violet/methanol. After the extraction of the dye, the optical density (OD) of the individual cavities were measured in a plate photometer of the Dynatech company (550/630 nm) and compared with the mean value of the cell controls. The mean value of the controls was assumed to be 100 %. By means of the mean dose effect curves the 50% cytotoxic concentrations (CC50) were measured by applying the linear interpolation method.

coxsackievirus B1 (CVB1) = test: Plaque reduction test (PRT) in HeLa cells, CVB1; format: cell-based
Procedure: (§2) Plaque reduction test (PRT) with the substance of example 1 and coxsackievirus B1, B2, B4, B5, B6 (CVB1, CVB2, CVB4, CVB5, CVB6)
(§3) For performing the test, 2-3-days-old compact HeLa cell lawns were infected in 12-well-tissue culture plates with 50-80 plaque-forming units (PFU) (Schmidtke M et al.: J Virol Meth, 2001, 95(1-2), 133-143). Two non-infected cavities of the plate were used as cell controls (CC). After a virus adsorption at 37° C. during one hour the virus-containing supernatant was soaked off. The infected cells were covered with a test medium containing 0.4% agar without (virus controls) or with substance in non-zytotoxic concentrations (dilution factor 2, double determination per concentration) and incubated at 37° C. during 48 h. After the fixation and dyeing of the plates with crystal-violet formalin, the agar was removed and rinsed in flowing water. The number of the virus-induced plaques was counted via a light box and afterwards the proportional substance-induced plaque reduction was calculated. Three identical test approaches were performed and the concentration that leads to a 50% plaque reduction (IC50) was measured by using the calculated mean dose-effect-curve.

[1] = test system: coxsackievirus B3 Nancy (CVB3 Nancy); test: Cytopathic effect (cpE)-inhibition test in HeLa cells, CVB3 Nancy; format: cell-based; conditions: 24 h after infection; for IC50: Enterovirus B, read-out: 50% inhibition concentration CVB3 Nancy
Procedure: (§4) Cytopathic effect (cpE)-inhibition test with the international reference strain coxsackievirus B3 Nancy (CVB3 Nancy), human rhinovirus 2 and 8 (HRV2 and […]) in HeLa cells
(§5) The replication of the viruses used in the test leads to the complete destruction of the host cells, a strong cytophatic effect (cpE). […] In the test, untreated and substance-treated compact cell lawns were infected with a virus dose that leads to a complete cpE in the untreated virus controls 24 h (CVB3 Nancy) or 72 h (HRV2 and HRV8) after the infection. At this point in time, the still adherent cells were fixed and dyed with a crystal-violet/formalin solution. The inhibition of the virus-induced cpE was quantified photometrically in a Dynatach plate reader after dye elution. The antiviral effect was calculated by comparing the optical densities of the substance-treated and untreated, virus-infected cells with the mean optical density of the cell controls that was assumed to be 100%. By means of the mean dose effect curves the 50% inhibition concentration was determined. Pleconaril was used as a control substance.

coxsackievirus B2 (CVB2) = test: Plaque reduction test (PRT) in HeLa cells, CVB2; format: cell-based
Procedure: as §2, §3

[2] = test system: human rhinovirus 8 (HRV8); test: Cytopathic effect (cpE)-inhibition test in HeLa cells, HRV8; format: cell-based; conditions: for IC50: Rhinovirus A, read-out: 50% inhibition concentration HRV8
Procedure: as §4, §5

coxsackievirus B6 (CVB6) = test: Plaque reduction test (PRT) in HeLa cells, CVB6; format: cell-based
Procedure: as §2, §3

HeLa cells = test: Tolerance in the cell culture: cytotoxicity in HeLa cells (CC50); format: cell-based; conditions: 72 h incubation
Procedure: as §1

[3] = as above; format: cell-based; conditions: human, repeated per virus line of the plaque reduction table, read-out: 50% zytotoxic concentration in HeLa cells (CC50)
Procedure: as §1

coxsackievirus B5 (CVB5) = test: Plaque reduction test (PRT) in HeLa cells, CVB5; format: cell-based
Procedure: as §2, §3

coxsackievirus B4 (CVB4) = test: Plaque reduction test (PRT) in HeLa cells, CVB4; format: cell-based
Procedure: as §2, §3

[4] = test system: human rhinovirus 2 (HRV2); test: Cytopathic effect (cpE)-inhibition test in HeLa cells, HRV2; format: cell-based; conditions: for IC50: Rhinovirus A, read-out: 50% inhibition concentration HRV2
Procedure: as §4, §5

mice = test: Acute toxicity in the mouse, single oral administration; format: in vivo; conditions: for Number of dead/surviving mice: 5 mice; for substance concentration up to which all animals survived: administered orally once, mice; for tolerability after administering orally once: mouse, in vivo, po; for influence on general state of health, rectal temperature, body weight: up to 3.000 mg/kg orally once, three days observation
Procedure: The acute toxicity of the substances of the examples 2 and 4 were determined in mice which were 4-5 weeks old (without strain designation). 1-2 drops TWIN-80 were added to a 1% aqueous carboxymethyl cellulose solution and this mixture was used to produce a substance suspension. 1500, 2000, 2500, 3000, 4000 or 5000 mg/kg of the substances of the examples 2 and 4 were administered orally to 5 mice, each amount once. On the following three days, the general state of health of the mice, the changes in their weight, their rectal temperatures and their survival rate were determined.

[5] = cpE inhibition, HeLa cells, 72 h after infection
[6] = HRV8, cpE inhibition, HeLa cells, 72 h after infection
[7] = HRV2, cpE inhibition, HeLa cells, 72 h after infection

For `Nc1nc(-c2ccccc2)nc2[nH]nc(Nc3ccccc3)c12` [Example 1, 4-amino-3-phenylamino-6-phenylpyrazolo[3,4-d]pyrimidine], the “50% cytotoxic concentration in GMK cells” value (GMK cells) was >50 µg/mL, the “Selection index (SI) = CC50:IC50” value (coxsackievirus B1 (CVB1); CVB1) was 3.1 and the IC50 (coxsackievirus B1 (CVB1); Enterovirus B, HeLa, plaque reduction, CVB1, 48 h, read-out: 50% inhibition concentration in HeLa cells (IC50)) was 12.7 µg/mL (≈ 42 µM). The IC50 [1] was 0.002 µg/mL (≈ 0.00662 µM), the “Selection index (SI) = CC50:IC50” value (coxsackievirus B2 (CVB2); CVB2) was 132 and the IC50 (coxsackievirus B2 (CVB2); Enterovirus B, HeLa, plaque reduction, CVB2, 48 h, read-out: 50% inhibition concentration in HeLa cells (IC50)) was 0.3 µg/mL (≈ 0.992 µM). For the same molecule, the “50% inhibition concentration HRV8” value [2, 5] was “ineffective”, the “Selection index (SI) = CC50:IC50” value (coxsackievirus B6 (CVB6); CVB6) was 15.3 and the IC50 (coxsackievirus B6 (CVB6); Enterovirus B, HeLa, plaque reduction, CVB6, 48 h, read-out: 50% inhibition concentration in HeLa cells (IC50)) was 2.6 µg/mL (≈ 8.6 µM). The “50% cytotoxic concentration in HeLa cells” value (HeLa cells) was 39.6 µg/mL, the CC50 at 72 h [3] was 39.6 µg/mL (≈ 131 µM) and the “Selection index (SI) = CC50:IC50” value (coxsackievirus B5 (CVB5); CVB5) was 14.1. For the same molecule, the IC50 (coxsackievirus B5 (CVB5); Enterovirus B, HeLa, plaque reduction, CVB5, 48 h, read-out: 50% inhibition concentration in HeLa cells (IC50)) was 2.8 µg/mL (≈ 9.26 µM), the “Selection index (SI) = CC50:IC50” value (coxsackievirus B4 (CVB4); CVB4) was 5.6 and the IC50 (coxsackievirus B4 (CVB4); Enterovirus B, HeLa, plaque reduction, CVB4, 48 h, read-out: 50% inhibition concentration in HeLa cells (IC50)) was 7.1 µg/mL (≈ 23.5 µM). The “50% inhibition concentration HRV2” value [4, 5] was “ineffective”.

In the case of `Cc1cccc(Nc2n[nH]c3nc(-c4ccccc4)nc(N)c23)c1` [Example 3, 4-amino-3-(3-methylphenyl)amino-6-phenylpyrazolo[3,4-d]pyrimidine], the IC50 [1] is reported as 0.02 µg/mL (≈ 0.0632 µM), the IC50 [2, 6] is reported as 1 µg/mL (≈ 3.16 µM) and the “50% cytotoxic concentration in HeLa cells” value (HeLa cells) is reported as 27.7 µg/mL. The IC50 [4, 7] was 1.1 µg/mL (≈ 3.48 µM) and the melting point was 246 to 248 °C.

With `Nc1nc(-c2ccccc2)nc2[nH]nc(Nc3ccc(Br)cc3)c12` [Example 5, 4-amino-3-(4-bromophenyl)amino-6-phenylpyrazolo[3,4-d]pyrimidine] the “50% cytotoxic concentration in GMK cells” value (GMK cells) was 42.9 µg/mL, the IC50 [1] was 0.04 µg/mL (≈ 0.105 µM) and the IC50 [2, 6] was 1 µg/mL (≈ 2.62 µM). The “50% cytotoxic concentration in HeLa cells” value (HeLa cells) was 8.5 µg/mL, the IC50 [4, 7] was 0.7 µg/mL (≈ 1.84 µM) and the melting point was 272 to 274 °C.

For `Nc1nc(-c2ccccc2)nc2[nH]nc(Nc3cccc(F)c3)c12` [Example 2, 4-amino-3-(3-fluorophenyl)amino-6-phenylpyrazolo[3,4-d]pyrimidine], the “50% cytotoxic concentration in GMK cells” value (GMK cells) was >50 µg/mL, the IC50 [1] was 0.001 µg/mL (≈ 0.00312 µM) and the “Number of dead/surviving mice” value (mice; 1500 mg/kg orally once) was 0/5. The “Number of dead/surviving mice” value (mice; 2000 mg/kg orally once) was 0/5, the “Number of dead/surviving mice” value (mice; 2500 mg/kg orally once) was 0/5 and the “Number of dead/surviving mice” value (mice; 3000 mg/kg orally once) was 0/5. The “Number of dead/surviving mice” value (mice; 4000 mg/kg orally once) was 3/5, the “Number of dead/surviving mice” value (mice; 5000 mg/kg orally once) was 5/5 and the “substance concentration up to which all animals survived” value (mice) was 3.000 mg/kg. The “tolerability after administering orally once” value (mice) was “very tolerable”, the “influence on general state of health, rectal temperature, body weight” value (mice) was “Neither the general state of health nor the rectal temperature nor the body weight was influenced” and the IC50 [2, 6] was 4.6 µg/mL (≈ 14.4 µM). The “50% cytotoxic concentration in HeLa cells” value (HeLa cells) was 45.7 µg/mL and the IC50 [4, 7] was 4.1 µg/mL (≈ 12.8 µM).

In the case of `Nc1nc(-c2ccccc2)nc2[nH]nc(Nc3ccc(F)cc3)c12` [Example 6, 4-amino-3-(4-fluorophenyl)amino-6-phenylpyrazolo[3,4-d]pyrimidine], the “50% cytotoxic concentration in GMK cells” value (GMK cells) is reported as >50 µg/mL, the IC50 [1] is reported as 0.03 µg/mL (≈ 0.0937 µM) and the IC50 [2, 6] is reported as 2 µg/mL (≈ 6.24 µM). The “50% cytotoxic concentration in HeLa cells” value (HeLa cells) was 44.3 µg/mL, the IC50 [4, 7] was 0.9 µg/mL (≈ 2.81 µM) and the melting point was 259 to 263 °C.

With `Cc1cc(CCCOc2c(C)cc(-c3noc(C(F)(F)F)n3)cc2C)on1` [Pleconaril, reference compound] the “50% inhibition concentration CVB3 Nancy” value [1] was “ineffective”, the IC50 ([2]; HRV8, HeLa, 72 h) was 1.3 µg/mL (≈ 3.41 µM) and the IC50 ([4]; HRV2, HeLa, 72 h) was 0.01 µg/mL (≈ 0.0262 µM).

In the case of `Cc1ccc(Nc2n[nH]c3nc(-c4ccccc4)nc(N)c23)cc1` [Example 4, 4-amino-3-(4-methylphenyl)amino-6-phenylpyrazolo[3,4-d]pyrimidine], the “50% cytotoxic concentration in GMK cells” value (GMK cells) is reported as >50 µg/mL, the IC50 [1] is reported as 0.08 µg/mL (≈ 0.253 µM) and the “Number of dead/surviving mice” value (mice; 1500 mg/kg orally once) is reported as 0/5. The “Number of dead/surviving mice” value (mice; 2000 mg/kg orally once) was 0/5, the “Number of dead/surviving mice” value (mice; 2500 mg/kg orally once) was 0/5 and the “Number of dead/surviving mice” value (mice; 3000 mg/kg orally once) was 0/5. The “Number of dead/surviving mice” value (mice; 4000 mg/kg orally once) was 4/5, the “Number of dead/surviving mice” value (mice; 5000 mg/kg orally once) was 5/5 and the “substance concentration up to which all animals survived” value (mice) was 3.000 mg/kg. The “tolerability after administering orally once” value (mice) was “very tolerable”, the “influence on general state of health, rectal temperature, body weight” value (mice) was “Neither the general state of health nor the rectal temperature nor the body weight was influenced” and the IC50 [2, 6] was 2.2 µg/mL (≈ 6.95 µM). The “50% cytotoxic concentration in HeLa cells” value (HeLa cells) was >50 µg/mL and the IC50 [4, 7] was 1.8 µg/mL (≈ 5.69 µM).
